In US4785080A, “Labeled analytes” (Baker Instruments Corporation, priority 1985, dated 1988):
“And” between values parts separate entries of the source, which are not always exact repeats. Identical values can stand only once.

Columns and labels:
Assay type in all cases: binding
dilantin antibody [1] = assay: Homogeneous immunoassay of dilantin standards and clinical samples, automatic data reduction (Example XXI); conditions: human serum
Protocol: This Example illustrates the design of an assay capable of directly assaying clinical samples, the use of the automatic pipetter (Model P-500) associated with the Centrifichem® 500 centrifugal fast analyzer, and the use of automatic data reduction.
The following reagents were utilized:
a. Labeled Analyte: Dilantin-S-peptide labeled analyte in 0.1 M triethanolamine (TEA)-HCl buffer, prepared in the manner described in Examples V-VIII was used.
b. Antibody: Anti-dilantin antiserum (150 ul) was diluted with 900 ul of 0.1M TEA-HCl buffer of pH 7.1;
c. Substrate: 5'-O-acetyl 2'-O-(tetrahydro pyran-2-yl) uridine 3'-(4-methylumbelliferone-7-yl ammonium phosphate) (6.4 mg) was added to 285.2 ul of 0.05N HCl and stirred at room temperature for 30 minutes. Sodium acetate buffer (714.8 ul, 0.1M, pH 5.0) was then added;
S-protein: A 12.3×10^-5 M solution of Sigma S-protein was made up in 0.1M TEA-HCl buffer (pH 7.1);
e. Dilantin standards: Solutions of 5, 5-diphenylhydantoin sodium salt (Sigma lot 64C-0027) were made up in human serum at concentrations of 2.5, 5.0, 10.0, 20.0 and 30.0 ug/ml.
A mixture of 16 ul S-peptide labeled analyte, 10 ul of human serum albumin, 1430 ul of TEA-HCl buffer, and the substrate solution described in (c.) was prepared (designated Reagent 1). A second mixture consisting of 150 ul of antiserum, 50 ul of S-protein, and 1937.5 ul of TEA buffer was prepared (designated Reagent 2). Using the CentrifiChem® P-500 automatic pipetter, 4 ul of the appropriate standard solution was simultaneously diluted with 45 ul of deionized H2 O and pipetted into the sample well of transfer disc. At the same time, the pipetter delivered 250 ul of Reagent 1 into the reagent well and 100 ul of Reagent 2 into the sample well. Instrumental parameters for the CentrifiChem® 500 centrifugal fast analyzer were the same as that for Example XX with the exception that Test Code 29 was used. This provides for automatic data reduction by the microprocessor unit of the CentrifiChem® 500 instrument.

dilantin antibody [2] = assay: Reference displacement curve for dilantin, colorimetric, CentrifiChem 500 (Example XX)
Protocol: This Example illustrates the generation of a reference displacement curve for the dilantin analyte on the CentrifiChem®500 centrifugal fast analyzer. A […] substrate, 5'-O-acetyl-uridine-3'(4-methylumbelliferone-7-yl phosphate), was used.
(§1) The following reagents were prepared:
a. Dilantin S-peptide labeled analyte: Material prepared in the manner described in Examples V-VIII in 0.1M triethanolamine (TEA)-HCl buffer was used.
b. Antibody: Anti-dilantin antisera was diluted by a factor of 1/20 with 0.1M TEA-HCl buffer of pH 7.1;
c. Substrate: Seventeen milligrams of 5'-O-acetyl 2'-O-(tetrahydropyran-2-yl) uridine 3'-(4-methylumbelliferone-7-yl ammonium phosphate) was added to 750 ul 0.05N HCl and stirred at room temperature for 30 min. Sodium acetate buffer, (1.880 ml, 0.1M, pH 5..0), was added. Just before use, 300 ul of this solution was combined with 5.094 ml of 0.1M TEA-HCl buffer of pH 7.1;
d. S-protein: Sigma purified commercial material was diluted by a factor of 1:100 with 0.1M TEA-HCl buffer of pH 7.1 to give a solution having a concentration of 1.53×10^-6 M;
e. Dilantin standards: A stock solution of 5,5-diphenylhydantoin sodium salt (Sigma Lot 64C-0027) was made up by dissolving 48 mg in 1 liter of 0.025N sodium hydroxide. This was diluted by a factor of 1:10 with 0.025N sodium hydroxide to give a solution having 4.8 ug/ml. This was further diluted to give standard solutions having concentrations of 19.1, 47.8, 95.8, 143.6, and 191.5 ng/ml.
The CentrifiChem® 500 centrifugal fast analyzer had the following instrument settings: rotor temp, 30°; filter, nm; To, 10 sec; T, 1 min; ABS 1.0 u; Blank, hold; test mode, Term; print out, ABS; conc. factor, 0; test code 0.
Antibody, dilantin-S-peptide and 16.6 ul of the standard solution were pipetted into the sample well of channels to 16 of the transfer disc. S-protein and 300 ul of substrate were pipetted into each of the corresponding reagent wells of the transfer disc. The transfer disc was placed on the rotor and spun. […] Catalytic activity rates (a.u./min) were obtained frcm a least squares, regression analysis of absorbances as a function of time.

dilantin antibody [3] = assay: Heterogeneous double antibody solid phase immunoassay of dilantin, free phase catalytic activity (Example XXII)
Protocol: A standard displacement curve is generated from the catalytic activity measurement using 5'-O-acetyluridyl-3'-(4-methylumbelliferone-7-yl) phosphate as a fluorogenic substrate for determination of analyte concentration of the control serum.
as §1
a. Dilantin-S-peptide labeled analyte: Labeled analyte in TEA-HCl buffer was prepared in the manner described in Examples V-VIII; 120 ul was diluted with 2860 ul of TEA-HCl buffer.
b. Antibody: Anti-dilantin antisera (300 ul) was diluted with 1800 ul of TEA-HCl buffer.
c. Solid phase immobilized second antibody: Bio-Rad IMMUNOBEAD™, Lot 17003, 50 mg was reconstituted with 50 ml of TEA-HCl buffer.
d. Substrate: 5'-O-acetyl-2'-O-(tetrahydropyran-2-yl) uridyl-3'-(4-methylumbelliferone-7-yl) ammonium phosphate, 35 mg, was deblocked with 1.5 ml of 0.025M HCl for 40 minutes at room temperature and extracted twice with 5 ml of ether. The residual ether was removed by the stream of air and the acidic solution was buffered with acetate buffer to 100 ml.
e. Acetate buffer: Sodium acetate buffer, 0.1M, pH 5.0.
f. TEA-HCl buffer: Triethanolamine-HCl buffer, 0.05M, pH 7.5.
g. […]
h. S-protein: Sigma purified solution was diluted 1/20 in acetate buffer.
[…] Antibody aliquots of 100 ul were pipetted into each duplicate tube of standards and the resulting mixtures were vortexed and incubated for 20 minutes at room temperature. Dilantin-S-peptide labeled analyte aliquots of 100 ul each were then pipetted into all tubes. The resulting mixture was incubated for 20 mintes at room temperature.
TEA-HCl buffer (108 ul), and Dilantin-S-peptide labeled analyte (100 ul) were pipetted into duplicate assay tubes labeled total. The resulting mixtures were mixed by vortexing and incubated for 20 minutes at room temperature.
Next a second antibody solution of 500 ul each was pipetted into all tubes except for total assay tubes. TEA-HCl buffer (500 ul) was pipetted into total assay tubes. The resulting mixtures were mixed by vortexing and were incubated for 60 minutes at room temperature. All assay tubes except total were centrifuged for 5 minutes at 3000 rpm at 5°-10° C.
The supernatant (free phase) of each tube was transferred into new tubes marked accordingly. The solid phase was resuspended with 0.5 ml of TEA buffer in each tube and centrifuged as above. The supernatant was decanted off.
Dose responsive catalytic activity was measured as follows:
An aliquot sample (50 ul each) of the free phase and total were assayed respectively with 1.8 ml of substrate and 50 ul of S-protein, measuring the fluorogenic product formation by emission at 440 nm when the mixture was excited at 325 nm, using a. Farrand Mark 1 fluorimeter.
The raw data were fit by a modified log-logit algorithm where the rates at infinite and 0 standard concentrations are obtained by an iterative procedure. Each data point in the Table represents the mean of duplicate points.

- Rate (dilantin antibody [2]; standard 19.1 ng/ml): 0.0154 a.u./min and 0.0171 a.u./min
- Rate (dilantin antibody [2]; standard 47.8 ng/ml): 0.0183 a.u./min and 0.0158 a.u./min
- Rate (dilantin antibody [2]; standard 95.8 ng/ml): 0.0191 a.u./min and 0.0197 a.u./min
- Rate (dilantin antibody [2]; standard 143.6 ng/ml): 0.0204 a.u./min and 0.0180 a.u./min
- Rate (dilantin antibody [2]; standard 191.5 ng/ml): 0.0209 a.u./min and 0.0205 a.u./min
SMILES: O=C1NC(=O)C(c2ccccc2)(c2ccccc2)N1 [dilantin, 5,5-diphenylhydantoin]
- 10^3 Response (dilantin antibody [1]; standard 2.5 ug/ml): 230 a.u. and 231 a.u.
- 10^3 Response (dilantin antibody [1]; standard 5 ug/ml): 252 a.u. and 256 a.u.
- 10^3 Response (dilantin antibody [1]; standard 10 ug/ml): 358 a.u. and 373 a.u.
- 10^3 Response (dilantin antibody [1]; standard 20 ug/ml): 512 a.u. and 494 a.u.
- 10^3 Response (dilantin antibody [1]; standard 30 ug/ml): 525 a.u. and 524 a.u.
- Rate, Mean (dilantin antibody [3]; standard 2.5 (ug/ml)): 10.0 na/min.
- Rate, Mean (dilantin antibody [3]; standard 5.0 (ug/ml)): 10.5 na/min.
- Rate, Mean (dilantin antibody [3]; standard 10.0 (ug/ml)): 14.0 na/min.
- Rate, Mean (dilantin antibody [3]; standard 20.0 (ug/ml)): 16.5 na/min.
- Rate, Mean (dilantin antibody [3]; standard 30.0 (ug/ml)): 19.0 na/min.
- Rate, Mean (dilantin antibody [3]; standard 40.0 (ug/ml)): 20.5 na/min.
